Experimental data taken from patent US20080103159A1, “Composition Comprising Ocaperidone” (priority 2005, published 2008).
In brackets after ≈: the same amount, converted by molar mass.

Assays:
[1] = Solubility of ocaperidone in water and buffers of gastro-intestinal fluids; format: physicochemical
Procedure: Ocaperidone is virtually insoluble in water. Its water solubility is less or equal to 0.007 mg per mL. […] In order to be absorbed uniformly from the gastrointestinal tract after oral administration, the drug must be dissolved and must remain in the solution for absorption. The pH of the gastrointestinal tract varies from pH 1 to 5 in the stomach and pH 4 to 7.5 in the intestine. There is also known significant variation of the intestinal pH on an intra- and inter-individual basis in the general population. This variation is mostly attributed to factors such as gastro-intestinal motility, concomitantly administered food or drug and food habits etc. It is an object of the present invention to provide a therapeutic system for ocaperidone from which, despite its very low solubility in water (0.007 mg/mL), is dispensed/released in the surrounding intestinal environment in a dissolved state. This invention eliminates the effect of surrounding pH on the solubility of ocaperidone. In addition, this improvement in solubility makes this therapeutic system to function appropriately from the bioavailability point of view and overcomes the inter- and intra-individual variability.

[2] = Bioavailability studies with conventional oral dosage forms in animals; format: in vivo
Excerpt: (§1) One of the objects of the invention is to overcome these drawbacks observed with conventional dosage forms.

[3] = Bioavailability studies with conventional oral dosage forms in humans; format: in vivo; settings: within a patient and between patients
Excerpt: as §1

solubility in the buffers of gastro-intestinal fluids ([1]; buffers of pH 3.0 and above): in the same range as that of water | solubility ([1]; water): 7 µg/mL (≈ 16.6 µM) | water solubility ([1]; water): ≤ 0.007 mg per mL | variability of bioavailability [2]: significant high variability | variability of bioavailability [3]: significant high variability
Structure (SMILES): Cc1nc2c(C)cccn2c(=O)c1CCN1CCC(c2noc3cc(F)ccc23)CC1 [Ocaperidone]
